Molecular target: Ephrin type-A receptor 2 (Mus musculus, UniProt Q03145)
Experiment: Displacement of biotinylated Fc-tagged ephrin-A1 from C/N-terminal 6-His tagged mouse recombinant EphA2 (Ala22 to Ala535 residues) preincubated for 1 hr followed by ephrin-A1-Fc addition and measured after 4 to 5 hrs by ELISA assay

Ephrin type-A receptor 2, sequence (Q03145 whole entry): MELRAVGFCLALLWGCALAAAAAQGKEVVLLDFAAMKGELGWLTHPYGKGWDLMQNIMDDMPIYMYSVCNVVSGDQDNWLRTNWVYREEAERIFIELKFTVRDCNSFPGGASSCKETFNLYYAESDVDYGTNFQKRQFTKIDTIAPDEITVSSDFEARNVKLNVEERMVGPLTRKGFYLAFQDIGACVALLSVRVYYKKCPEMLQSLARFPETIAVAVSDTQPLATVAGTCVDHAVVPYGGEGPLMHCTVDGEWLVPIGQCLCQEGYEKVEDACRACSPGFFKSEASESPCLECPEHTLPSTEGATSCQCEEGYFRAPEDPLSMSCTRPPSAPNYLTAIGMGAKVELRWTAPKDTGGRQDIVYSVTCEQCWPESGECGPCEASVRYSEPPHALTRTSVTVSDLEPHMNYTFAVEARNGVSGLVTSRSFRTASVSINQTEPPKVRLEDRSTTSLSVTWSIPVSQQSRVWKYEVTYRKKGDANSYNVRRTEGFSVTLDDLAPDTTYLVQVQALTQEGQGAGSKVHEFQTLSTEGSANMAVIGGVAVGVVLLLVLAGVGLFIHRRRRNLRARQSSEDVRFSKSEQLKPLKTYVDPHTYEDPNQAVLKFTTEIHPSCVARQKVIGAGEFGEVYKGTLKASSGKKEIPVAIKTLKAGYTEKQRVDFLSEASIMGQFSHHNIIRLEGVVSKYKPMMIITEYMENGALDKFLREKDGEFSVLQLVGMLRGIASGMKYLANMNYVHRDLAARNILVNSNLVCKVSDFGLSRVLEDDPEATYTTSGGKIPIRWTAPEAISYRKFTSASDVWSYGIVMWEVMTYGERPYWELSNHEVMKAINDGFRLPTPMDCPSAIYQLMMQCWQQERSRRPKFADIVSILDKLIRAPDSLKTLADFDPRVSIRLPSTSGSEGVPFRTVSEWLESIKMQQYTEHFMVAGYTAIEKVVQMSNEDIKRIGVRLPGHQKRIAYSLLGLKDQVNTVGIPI

| Structure (SMILES) | IC50 |
| --- | --- |
| C[C@H](CCC(=O)N[C@H](CC(=O)O)Cc1cn(S(=O)(=O)c2cccc(C(F)(F)F)c2)c2ccccc12)[C@H]1CC[C@H]2[C@@H]3CC=C4C[C@@H](O)CC[C@]4(C)[C@H]3CC[C@]12C | 12 µM |
| Cc1cccc(S(=O)(=O)n2cc(C[C@@H](CC(=O)O)NC(=O)CC[C@@H](C)[C@H]3CC[C@H]4[C@@H]5CC=C6C[C@@H](O)CC[C@]6(C)[C@H]5CC[C@]34C)c3ccccc32)c1 | 24 µM |
| C[C@H](CCC(=O)N[C@H](CC(=O)O)Cc1cn(S(=O)(=O)c2cccc(C#N)c2)c2ccccc12)[C@H]1CC[C@H]2[C@@H]3CC=C4C[C@@H](O)CC[C@]4(C)[C@H]3CC[C@]12C | 24 µM |
| C[C@H](CCC(=O)N[C@H](CC(=O)O)Cc1cn(S(=O)(=O)c2cccc(-c3ccccc3)c2)c2ccccc12)[C@H]1CC[C@H]2[C@@H]3CC=C4C[C@@H](O)CC[C@]4(C)[C@H]3CC[C@]12C | 16 µM |
| C[C@H](CCC(=O)N[C@H](CC(=O)O)Cc1cn(S(=O)(=O)c2ccc(-c3ccccc3)cc2)c2ccccc12)[C@H]1CC[C@H]2[C@@H]3CC=C4C[C@@H](O)CC[C@]4(C)[C@H]3CC[C@]12C | 20 µM |
| C[C@H](CCC(=O)N[C@H](CC(=O)O)Cc1cn(S(=O)(=O)c2cccc([N+](=O)[O-])c2)c2ccccc12)[C@H]1CC[C@H]2[C@@H]3CC=C4C[C@@H](O)CC[C@]4(C)[C@H]3CC[C@]12C | 38 µM |
| C[C@H](CCC(=O)N[C@H](CC(=O)O)Cc1cn(S(=O)(=O)c2cccc(F)c2)c2ccccc12)[C@H]1CC[C@H]2[C@@H]3CC=C4C[C@@H](O)CC[C@]4(C)[C@H]3CC[C@]12C | 29 µM |
| C[C@H](CCC(=O)N[C@H](CC(=O)O)Cc1cn(S(=O)(=O)c2cccnc2)c2ccccc12)[C@H]1CC[C@H]2[C@@H]3CC=C4C[C@@H](O)CC[C@]4(C)[C@H]3CC[C@]12C | 16 µM |

Stronger by IC50, values ahead:

| IC50 | Structure (SMILES) |
| --- | --- |
| 9.9 µM | C[C@H](CCC(=O)N[C@H](CC(=O)O)Cc1cn(S(=O)(=O)c2ccc(C#N)cc2)c2ccccc12)[C@H]1CC[C@H]2[C@@H]3CC=C4C[C@@H](O)CC[C@]4(C)[C@H]3CC[C@]12C |
| 8.3 µM | Cc1ccc(S(=O)(=O)n2cc(C[C@@H](CC(=O)O)NC(=O)CC[C@@H](C)[C@H]3CC[C@H]4[C@@H]5CC=C6C[C@@H](O)CC[C@]6(C)[C@H]5CC[C@]34C)c3ccccc32)cc1 |
| 8.2 µM | C[C@H](CCC(=O)N[C@H](CC(=O)O)Cc1cn(S(=O)(=O)c2ccc(F)cc2)c2ccccc12)[C@H]1CC[C@H]2[C@@H]3CC=C4C[C@@H](O)CC[C@]4(C)[C@H]3CC[C@]12C |
| 6.9 µM | C[C@H](CCC(=O)N[C@H](CC(=O)O)Cc1cn(S(=O)(=O)c2ccoc2)c2ccccc12)[C@H]1CC[C@H]2[C@@H]3CC=C4C[C@@H](O)CC[C@]4(C)[C@H]3CC[C@]12C |
| 5.6 µM | C[C@H](CCC(=O)N[C@H](CC(=O)O)Cc1cn(S(=O)(=O)c2cccc(N)c2)c2ccccc12)[C@H]1CC[C@H]2[C@@H]3CC=C4C[C@@H](O)CC[C@]4(C)[C@H]3CC[C@]12C |
| 5.5 µM | C[C@H](CCC(=O)N[C@H](CC(=O)O)Cc1cn(S(=O)(=O)c2ccsc2)c2ccccc12)[C@H]1CC[C@H]2[C@@H]3CC=C4C[C@@H](O)CC[C@]4(C)[C@H]3CC[C@]12C |
| 4.7 µM | C[C@H](CCC(=O)N[C@H](CC(=O)O)Cc1cn(S(=O)(=O)c2ccc(N)cc2)c2ccccc12)[C@H]1CC[C@H]2[C@@H]3CC=C4C[C@@H](O)CC[C@]4(C)[C@H]3CC[C@]12C |
| 3.6 µM | C[C@H](CCC(=O)N[C@H](CC(=O)O)Cc1cn(S(=O)(=O)c2ccc([N+](=O)[O-])cc2)c2ccccc12)[C@H]1CC[C@H]2[C@@H]3CC=C4C[C@@H](O)CC[C@]4(C)[C@H]3CC[C@]12C |

Reference: ChEMBL document CHEMBL5614382, “Discovery of a new 1-(phenylsulfonyl)-1H-indole derivative targeting the EphA2 receptor with antiproliferative activity on U251 glioblastoma cell line” (Eur J Med Chem, 2024)
